In US20240050428A1 (Cullgen (Shanghai), Inc., priority 2020, published 2024) one finds IC50 data, which are given here for 20 compounds.

The structures appear in SMILES notation. Read-outs that look alike come from different tables or passages of the source.

For one experiment, the system named is MOLM-13 cells. The experiment can be described thus: Cell viability assay (CellTiter-Glo) in MOLM-13 cells, alone or with gilteritinib. Format: cell-based. To be noted: Homo sapiens, MOLM-13, 72 h, MOLM-13 cells, three days, CellTiter-Glo. A general note: ATP-based viability assays read luminescence as a measure of living cells.
The test system of a further experiment is MV4;11 cells. The experiment can be described thus: Cell viability assay (CellTiter-Glo) in MV4;11 cells, alone or with gilteritinib. Format: cell-based. To be noted: Homo sapiens, MV4-11, 72 h, MV4;11 cells, three days, CellTiter-Glo, read-out: MV4.
Where [1] appears, read: compound alone (without gilteritinib), read-out: MOLM-13 IC50.
[2] abbreviates: with gilteritinib 20 nM, read-out: MOLM-13 IC50 gilteritinib.
Setting [3] is: compound alone (without gilteritinib), 11 IC50.
The mark [4] stands for this setting: with gilteritinib 10 nM, 11 IC50 gilteritinib.

For the compound `O=C1CCC(N2Cc3ccc(CCCC(=O)N4CCC(n5cc(-c6cnc7ccccc7n6)cn5)CC4)cc3C2=O)C(=O)N1` (centres unmarked) [GS-158, 3-(1-Oxo-6-(4-oxo-4-(4-(4-(quinoxalin-2-yl)-1H-pyrazol-1-yl)piperidin-1-yl)butyl)isoindolin-2-yl)piperidine-2,6-dione], the IC50 in the experiment on MOLM-13 cells (setting [1]), with MOLM-13 cells (setting [2]), with MV4;11 cells (setting [3]) and with MV4;11 cells (setting [4]) was above 1 µM in each case.

In the case of `O=C1CCC(N2Cc3ccc(CCCC(=O)N4CCC(n5cc(-c6ccc7ccccc7n6)cn5)CC4)cc3C2=O)C(=O)N1` (centres unmarked) [GS-159, 3-(1-Oxo-6-(4-oxo-4-(4-(4-(quinolin-2-yl)-1H-pyrazol-1-yl)piperidin-1-yl)butyl)isoindolin-2-yl)piperidine-2,6-dione], the IC50 in the experiment with MOLM-13 cells (setting [1]), in the experiment with MOLM-13 cells (setting [2]), with MV4;11 cells (setting [3]) and with MV4;11 cells (setting [4]) was above 1 µM in each case.

As to `O=C1CCC(N2Cc3ccc(CCCCC(=O)N4CCC(n5cc(-c6ccc7ccccc7n6)cn5)CC4)cc3C2=O)C(=O)N1` (centres unmarked) [GS-160, 3-(1-Oxo-6-(5-oxo-5-(4-(4-(quinolin-2-yl)-1H-pyrazol-1-yl)piperidin-1-yl)pentyl)isoindolin-2-yl)piperidine-2,6-dione], the IC50 in the experiment on MOLM-13 cells (setting [1]) was above 1 µM; in the experiment on MOLM-13 cells (setting [2]), 0.01 to 0.1 µM; in the experiment on MV4;11 cells (setting [3]) it was 0.1 to 1 µM; with MV4;11 cells (setting [4]), 0.01 to 0.1 µM.

In the case of `O=C1CCC(N2Cc3ccc(CCCCC(=O)N4CCC(n5cc(-c6cnc7ccccc7n6)cn5)CC4)cc3C2=O)C(=O)N1` (centres unmarked) [GS-161, 3-(1-Oxo-6-(5-oxo-5-(4-(4-(quinoxalin-2-yl)-1H-pyrazol-1-yl)piperidin-1-yl)pentyl)isoindolin-2-yl)piperidine-2,6-dione], the IC50 in the experiment with MOLM-13 cells (setting [1]) was above 1 µM; in the experiment with MOLM-13 cells (setting [2]), 0.01 to 0.1 µM; in the experiment on MV4;11 cells (setting [3]), 0.1 to 1 µM; in the experiment with MV4;11 cells (setting [4]) it was 0.01 to 0.1 µM.

Take `O=C1CCC(N2Cc3cc(NCc4cccc(N5CCC(n6cc(-c7cnc8ccccc8n7)cn6)CC5)c4)ccc3C2=O)C(=O)N1` (centres unmarked) [GS-162, 3-(1-Oxo-5-((3-(4-(4-(quinoxalin-2-yl)-1H-pyrazol-1-yl)piperidin-1-yl)benzyl)amino)isoindolin-2-yl)piperidine-2,6-dione]: the IC50 in the experiment with MOLM-13 cells (setting [1]) was above 1 µM; with MOLM-13 cells (setting [2]), 0.01 to 0.1 µM; in the experiment on MV4;11 cells (setting [3]), above 1 µM; in the experiment with MV4;11 cells (setting [4]), above 1 µM.

For `N#Cc1ccc2ncc(-c3cnn(CCCCCCNc4ccc5c(c4)C(=O)N(C4CCC(=O)NC4=O)C5=O)c3)nc2c1` (centres unmarked) [GS-163, 3-(1-(6-((2-(2,6-Dioxopiperidin-3-yl)-1,3-dioxoisoindolin-5-yl)amino)hexyl)-1H-pyrazol-4-yl)quinoxaline-6-carbonitrile], the IC50 was 0.1 to 1 µM with MOLM-13 cells (setting [1]), below 0.01 µM in the experiment on MOLM-13 cells (setting [2]), 0.1 to 1 µM with MV4;11 cells (setting [3]) and 0.01 to 0.1 µM in the experiment on MV4;11 cells (setting [4]).

As to `O=C1CCC(N2C(=O)c3ccc(NCCCC4CC(n5cc(-c6cnc7cccc(F)c7n6)cn5)C4)cc3C2=O)C(=O)N1` (centres unmarked) [GS-164, 2-(2,6-Dioxopiperidin-3-yl)-5-((3-(3-(4-(8-fluoroquinoxalin-2-yl)-1H-pyrazol-1-yl)cyclobutyl)propyl)amino)isoindoline-1,3-dione], the IC50 fell in the range of 0.1 to 1 µM in the experiment with MOLM-13 cells (setting [1]), 0.01 to 0.1 µM in the experiment on MOLM-13 cells (setting [2]), 0.1 to 1 µM in the experiment with MV4;11 cells (setting [3]) and 0.01 to 0.1 µM with MV4;11 cells (setting [4]).

Consider `N#Cc1cccc2ncc(-c3cnn(CCCCCCNc4ccc5c(c4)C(=O)N(C4CCC(=O)NC4=O)C5=O)c3)nc12` (centres unmarked) [GS-165, 3-(1-(6-((2-(2,6-Dioxopiperidin-3-yl)-1,3-dioxoisoindolin-5-yl)amino)hexyl)-1H-pyrazol-4-yl)quinoxaline-5-carbonitrile], for which the IC50 in the experiment on MOLM-13 cells (setting [1]) was in the range of 0.1 to 1 µM; in the experiment with MOLM-13 cells (setting [2]), 0.01 to 0.1 µM; in the experiment with MV4;11 cells (setting [3]), 0.1 to 1 µM; in the experiment on MV4;11 cells (setting [4]) it was 0.01 to 0.1 µM.

Regarding `Cc1nn(CCCCCCNc2ccc3c(c2)C(=O)N(C2CCC(=O)NC2=O)C3=O)c(C)c1-c1cnc2cccc(C#N)c2n1` (centres unmarked) [GS-166, 3-(1-(6-((2-(2,6-Dioxopiperidin-3-yl)-1,3-dioxoisoindolin-5-yl)amino)hexyl)-3,5-dimethyl-1H-pyrazol-4-yl)quinoxaline-5-carbonitrile], the IC50 is 0.01 to 0.1 µM in the experiment on MOLM-13 cells (setting [1]), below 0.01 µM in the experiment on MOLM-13 cells (setting [2]), 0.01 to 0.1 µM with MV4;11 cells (setting [3]) and below 0.01 µM with MV4;11 cells (setting [4]).

In the case of `Cc1nn(C2CC(CCCNc3ccc4c(c3)C(=O)N(C3CCC(=O)NC3=O)C4=O)C2)c(C)c1-c1cnc2ccccc2n1` (centres unmarked) [GS-167, 5-((3-(3-(3,5-Dimethyl-4-(quinoxalin-2-yl)-1H-pyrazol-1-yl)cyclobutyl)propyl)amino)-2-(2,6-dioxopiperidin-3-yl)isoindoline-1,3-dione], the IC50 with MOLM-13 cells (setting [1]) was above 1 µM; with MOLM-13 cells (setting [2]), below 0.01 µM; in the experiment on MV4;11 cells (setting [3]), above 1 µM; in the experiment with MV4;11 cells (setting [4]), 0.1 to 1 µM.

Regarding `Cc1nn([C@H]2C[C@@H](CCCNc3ccc4c(c3)C(=O)N(C3CCC(=O)NC3=O)C4=O)C2)cc1-c1cnc2ccccc2n1` (stereo partly drawn) [GS-168, 2-(2,6-Dioxopiperidin-3-yl)-5-((3-(cis-3-(3-methyl-4-(quinoxalin-2-yl)-1H-pyrazol-1-yl)cyclobutyl)propyl)amino)isoindoline-1,3-dione], the IC50 with MOLM-13 cells (setting [1]) is above 1 µM; in the experiment on MOLM-13 cells (setting [2]) it was 0.01 to 0.1 µM; with MV4;11 cells (setting [3]) it was 0.1 to 1 µM; in the experiment on MV4;11 cells (setting [4]), 0.01 to 0.1 µM.

For the compound `Cc1c(-c2cnc3ccccc3n2)cnn1[C@H]1C[C@@H](CCCNc2ccc3c(c2)C(=O)N(C2CCC(=O)NC2=O)C3=O)C1` (stereo partly drawn) [GS-169, 2-(2,6-Dioxopiperidin-3-yl)-5-((3-(cis-3-(5-methyl-4-(quinoxalin-2-yl)-1H-pyrazol-1-yl)cyclobutyl)propyl)amino)isoindoline-1,3-dione], the IC50 with MOLM-13 cells (setting [1]) is above 1 µM; with MOLM-13 cells (setting [2]) it was 0.01 to 0.1 µM; in the experiment with MV4;11 cells (setting [3]), 0.1 to 1 µM; in the experiment on MV4;11 cells (setting [4]) it was above 1 µM.

Consider `Cc1c(-c2cnc3ccccc3n2)cnn1[C@H]1C[C@H](CCCNc2ccc3c(c2)C(=O)N(C2CCC(=O)NC2=O)C3=O)C1` (stereo partly drawn) [GS-170, 2-(2,6-Dioxopiperidin-3-yl)-5-((3-(trans-3-(5-methyl-4-(quinoxalin-2-yl)-1H-pyrazol-1-yl)cyclobutyl)propyl)amino)isoindoline-1,3-dione], for which the IC50 in the experiment with MOLM-13 cells (setting [1]) is above 1 µM; in the experiment with MOLM-13 cells (setting [2]), 0.01 to 0.1 µM; in the experiment with MV4;11 cells (setting [3]) it was above 1 µM; in the experiment with MV4;11 cells (setting [4]), 0.01 to 0.1 µM.

Take `Cc1nn([C@H]2C[C@H](CCCNc3ccc4c(c3)C(=O)N(C3CCC(=O)NC3=O)C4=O)C2)cc1-c1cnc2ccccc2n1` (stereo partly drawn) [GS-171, 2-(2,6-Dioxopiperidin-3-yl)-5-((3-(trans-3-(3-methyl-4-(quinoxalin-2-yl)-1H-pyrazol-1-yl)cyclobutyl)propyl)amino)isoindoline-1,3-dione]: the IC50 in the experiment with MOLM-13 cells (setting [1]) was 0.01 to 0.1 µM; in the experiment on MOLM-13 cells (setting [2]) it was below 0.01 µM; in the experiment with MV4;11 cells (setting [3]), 0.01 to 0.1 µM; with MV4;11 cells (setting [4]), below 0.01 µM.

`CN1CCN(c2ccc3ncc(-c4cnn(C5CC(CCCNc6ccc7c(c6)C(=O)N(C6CCC(=O)NC6=O)C7=O)C5)c4)nc3c2)CC1` (centres unmarked) [GS-172, 2-(2,6-Dioxopiperidin-3-yl)-5-((3-(3-(4-(7-(4-methylpiperazin-1-yl)quinoxalin-2-yl)-1H-pyrazol-1-yl)cyclobutyl)propyl)amino)isoindoline-1,3-dione]: the IC50 was above 1 µM in the experiment on MOLM-13 cells (setting [1]), 0.1 to 1 µM in the experiment on MOLM-13 cells (setting [2]), 0.1 to 1 µM in the experiment on MV4;11 cells (setting [3]) and above 1 µM with MV4;11 cells (setting [4]).

As for `O=C1CCC(N2C(=O)c3ccc(NCCCC4CC(n5cc(-c6cnc7ccc(N8CCOCC8)cc7n6)cn5)C4)cc3C2=O)C(=O)N1` (centres unmarked) [GS-173, 2-(2,6-Dioxopiperidin-3-yl)-5-((3-(3-(4-(7-morpholinoquinoxalin-2-yl)-1H-pyrazol-1-yl)cyclobutyl)propyl)amino)isoindoline-1,3-dione], the IC50 is 0.01 to 0.1 µM in the experiment on MOLM-13 cells (setting [1]), below 0.01 µM with MOLM-13 cells (setting [2]), 0.01 to 0.1 µM in the experiment on MV4;11 cells (setting [3]) and 0.01 to 0.1 µM in the experiment on MV4;11 cells (setting [4]).

With `O=C1CCC(N2C(=O)c3ccc(NCCCC4CC(n5cc(-c6cnc7ccc(N8CCNCC8)cc7n6)cn5)C4)cc3C2=O)C(=O)N1` (centres unmarked) [GS-174, 2-(2,6-Dioxopiperidin-3-yl)-5-((3-(3-(4-(7-(piperazin-1-yl)quinoxalin-2-yl)-1H-pyrazol-1-yl)cyclobutyl)propyl)amino)isoindoline-1,3-dione], the IC50 with MOLM-13 cells (setting [1]) was above 1 µM; in the experiment on MOLM-13 cells (setting [2]) it was below 0.01 µM; with MV4;11 cells (setting [3]) it was 0.1 to 1 µM; in the experiment with MV4;11 cells (setting [4]), 0.01 to 0.1 µM.

With `N#Cc1ccc2ncc(-c3cnn(C4CC(CCCNc5ccc6c(c5)C(=O)N(C5CCC(=O)NC5=O)C6=O)C4)c3)nc2c1` (centres unmarked) [GS-175, 3-(1-(3-(3-((2-(2,6-Dioxopiperidin-3-yl)-1,3-dioxoisoindolin-5-yl)amino)propyl)cyclobutyl)-1H-pyrazol-4-yl)quinoxaline-6-carbonitrile], the IC50 in the experiment with MOLM-13 cells (setting [1]) was 0.1 to 1 µM; with MOLM-13 cells (setting [2]), below 0.01 µM; in the experiment on MV4;11 cells (setting [3]) it was 0.1 to 1 µM; in the experiment on MV4;11 cells (setting [4]), 0.01 to 0.1 µM.

Consider `O=C1CCC(N2C(=O)c3ccc(NCCC[C@H]4C[C@H](n5cc(-c6cnc7ccccc7n6)cn5)C4)cc3C2=O)C(=O)N1` (stereo partly drawn) [GS-176, 2-(2,6-Dioxopiperidin-3-yl)-5-((3-(trans-3-(4-(quinoxalin-2-yl)-1H-pyrazol-1-yl)cyclobutyl)propyl)amino)isoindoline-1,3-dione], for which the IC50 fell in the range of 0.1 to 1 µM with MOLM-13 cells (setting [1]), 0.01 to 0.1 µM with MOLM-13 cells (setting [2]), 0.1 to 1 µM in the experiment with MV4;11 cells (setting [3]) and 0.01 to 0.1 µM in the experiment with MV4;11 cells (setting [4]).

Take `O=C1CCC(N2C(=O)c3ccc(NCCC[C@H]4C[C@@H](n5cc(-c6cnc7ccccc7n6)cn5)C4)cc3C2=O)C(=O)N1` (stereo partly drawn) [GS-177, 2-(2,6-Dioxopiperidin-3-yl)-5-((3-(cis-3-(4-(quinoxalin-2-yl)-1H-pyrazol-1-yl)cyclobutyl)propyl)amino)isoindoline-1,3-dione]: the IC50 is above 1 µM in the experiment on MOLM-13 cells (setting [1]), 0.01 to 0.1 µM with MOLM-13 cells (setting [2]), above 1 µM with MV4;11 cells (setting [3]) and 0.1 to 1 µM in the experiment on MV4;11 cells (setting [4]).
